Results from patent US9617330B2, “Chemorepulsion of cells” (Celtaxsys, Inc., priority 2006, dated 2017).

B1: Cathespin G, Human Neutrophil: Cathespin G, Human Neutrophil (protein, UniProt P08311 21-244, looked up)
Cathepsin G: IIGGRESRPHSRPYMAYLQIQSPAGQSRCGGFLVREDFVLTAAHCWGSNINVTLGAHNIQRRENTQQHITARRAIRHPQYNQRTIQNDIMLLQLSRRVRRNRNVNPVALPRAQEGLRPGTLCTVAGWGRVSMRRGTDTLREVQLRVQRDRQCLRIFGSYDPRRQICVGDRRERKAAFKGDSGGPLLCNNVAHGIVSYGKSSGVPPEVFTRVSSFLPWIRTTMRS
B2: CCL27: chemokine (protein, UniProt Q9Y4X3 25-112, looked up)
C-C motif chemokine 27: FLLPPSTACCTQLYRKPLSDKLLRKVIQVELQEADGDCHLQAFVLHLAQRSICIHPQNPSLSQWFEHQERKLHGTLPKLNFGMLRKMG

What was measured:
[1] = tested on: Neutrophils; test: High throughput transmigration assay (Example 9), chemorepulsion; format: cell-based, human
[2] = tested on: Eo-HL60 (HL-60 clone 15 differentiated to eosinophil-like phenotype); test: Trans-well migration assay (Example 1), net migratory response; format: cell-based, human; details: net observed response
[3] = tested on: Monocyte; test: as above; details: Monocyte; net observed response
Description: (§1) Prior to beginning the assay 0.5% Fetal Calf Serum (FCS) in Iscove's Modified Dulbecco's Medium (IMDM) is prepared and stored on ice (Assay Medium). Migratory cells at a concentration of 2×10^7 cells/ml are suspended in Assay Medium. T-cells isolated from donor blood or buffy coats are allowed to rest overnight in Assay Medium at 37° C. in 5% CO2. Neutrophils, monocytes and B cells are utilized as soon as they are purified from donor blood or other source of human origin. Four serial (10×) dilutions of the ligand are then prepared in Assay Medium (normally 10 μg/ml to 0.01 μg/ml).
(§2) Plates are removed from the packaging, leaving the membrane behind and intact. The membrane is set aside. Into each well is pipetted 31 μl of solution. For media controls and fugetaxis (chemorepellent) samples, Assay Medium is used. For chemoattraction samples, the appropriate dilution of agent in assay medium is used.
(§3) Using a sterile needle, all small bubbles present in each well are popped and the membrane is carefully placed onto the plate, starting at one side and slowly lowering the other edge onto the plate.
(§4) Then 29 μl is pipetted into each circle imprinted on the polycarbonate or polyester membrane. For media controls and chemoattraction samples, Assay Medium is used. For fugetaxis (chemorepellent) samples, the appropriate dilution of ligand in assay medium is used.
(§5) To each 29 uL aliquot above is added 2 μl of cells (40,000 cells). It is important to ensure that before beginning the cells are well suspended and that they are mixed. This mixing can be accomplished by agitating the tube between each addition.
(§6) The plate is then covered with the supplied lid and incubated 1-3 hours in a humidified incubator at 37° C. in 5% CO2. Following the incubation period, the liquid from the top of the plate is removed with a tissue or similar blotting material (e.g. a Kimwipe). The membrane is carefully removed from the top of the plate and discarded. […] Using a multichannel pipettor, each well of the microplate is rinsed with 25 μl Phosphate Buffered Saline (Mediatech #21-040-CV) and transferred to the same wells in the white microplate. Using a multichannel pipettor, 50 μl CellTiter-Glo Luminescent Cell Viability Assay (Promega #G7572) is added to each well and mixed.
(§7) The plate is read using the Perkin Elmer Victor^3V plate reader using the Large Aperture Luminescence setting at 8 mm height above the plate with a dwell time of 1 s to quantify the number of migrated cells.
(§8) The results reported reflect the net observed migratory response of the cells to the ligand and are not based on the definition of unimodal fugetaxins.

[4] = tested on: B cells; test: High throughput transmigration assay (Example 9), chemorepulsion; format: cell-based, human; design: key: ratio of chemorepulsion (CR) to spontaneous migration (SM), CR/SM; details: mean of three donors at concentration of highest activity, range 0.00125-1.25 μM
Description: An agent's repellent index is the ratio of chemorepulsion (CR) to spontaneous migration (SM) induced by the agent, i.e., [(CR)/(SM)]. […] For example, in calculating a RI for an agent, migratory responses including chemorepulsion (CR) and spontaneous migration (SM) may be measured over several decades or log scales of concentration. If, over any two consecutive measurements at concentrations which differ by at least 10 fold, the ratio of CR to SM at each of the two contiguous measurements is equal to or greater than 1.2, then the agent is considered a validated chemorepellent.
For primary human T cells, up to 80 ml of blood is drawn from a human donor in sodium heparin Vacutainer tubes (Becton-Dickinson). The blood (between 10 and 15 ml per tube) is then layered onto 30 ml of Lymphocyte Separation Medium (LSM) (Cellgro, Herndon, Va.) in a 50 ml conical centrifuge tube and centrifuged for 20 minutes at 2440×g in a swinging bucket rotor. After removing the majority of the plasma from the top of each tube, the peripheral blood mononucleocyte (PBMC) layer is removed and transferred to fresh 50 ml conical centrifuge tubes. The tubes are then filled to 50 ml with IMDM and centrifuged for 10 minutes at 500×g. All but approximately 5 ml of the supernatant is then removed and the pellet resuspended with 25 ml IMDM and the centrifugation repeated. After removal of the supernatant, the cells are resuspended and combined to one 50 ml tube (per subject) and brought to a total volume of 50 ml. The cells are then counted using a hemacytometer (Reichert). After centrifugation under the same conditions, the supernatant is removed and the cells processed using the appropriate Miltenyi Biotec (Auburn, Calif.) negative selection kit to enrich for the desired cell type according to manufacturers instructions. The resulting purified cells are then diluted to 50 ml with IMDM. After centrifugation at 500×g for 10 minutes, the supernatant is removed and the cells resuspended in 15 ml IMDM supplemented with 0.5% heat inactivated fetal calf serum (FCS) (ATCC, Manassas, Va.). After another centrifugation for 10 minutes at 500×g, the supernatant is again removed and the cells resuspended in 7 ml 0.5% FCS in IMDM (assay medium) and transferred to a 15 ml conical centrifuge tube. The cells are then quantitated using a hemacytometer. When enriching for monocytes, the concentration of cells is adjusted to 2×10^7 per ml by centrifugation and removal of the appropriate volume of assay medium. For all other cell types, the tube cap is replaced with one from a 25 cm^2 tissue culture flask (Corning) and the cells stored overnight in a humidified 37° C. incubator with 5% CO2. The concentration of the cells is adjusted as for monocytes just prior to transmigration assay of Example 9.
Migration away from a chemical or biological agent (chemorepulsion (CR)) was measured using ChemoTx plates (Neuroprobe). These plates contain a planar polycarbonate or polyester membrane that has been etched and perforated so that cells can move along the etched tracks and fall through perforation holes, enabling the cells to be collected and the number of migrated cells quantified (FIGS. 5-6). Several dilutions (normally 4 in 10-fold increments) are prepared of the agent of interest. For neutrophils, plates with 3 μm pore membranes are used, while for all other primary cell types, 5 μm pore membranes are used. Membranes may, or may not, be coated with polyvinylpyrrolidine (PVP) as a wetting agent.
For spontaneous migration controls and chemorepulsion (CR) assays, 31 μl of assay medium is pipetted into the lower well of the transmigration apparatus (FIGS. 5-6). For spontaneous migration controls and chemoattraction (CA) assays, 29 μl of assay medium is pipetted into upper chamber of the transmigration apparatus (FIG. 5). For CR, the upper well assay medium contains the agent or candidate chemorepellent. […]

[5] = tested on: Human primary neutrophils; test: Trans-well migration assay (Example 3 method), unimodal fugetaxin test; format: cell-based; design: key to Unimodal fugetaxin hit, Neutrophils: A “+” in the Table indicates a positive hit as a unimodal fugetaxin, as that term is defined herein, for that particular cell type; details: for Unimodal fugetaxin hit, Neutrophils: human neutrophils, methods of Example 3
[6] = tested on: Human primary CD4+ lymphocytes; test: as above; format: cell-based; design: key: A “+” in the Table indicates a positive hit as a unimodal fugetaxin, as that term is defined herein, for that particular cell type; details: methods of Example 3
[7] = tested on: B-cell; test: Trans-well migration assay (Example 1), net migratory response; details: net observed response
Description: as §1, §2, §3, §4, §5, §6, §7, §8

[8] = Neutrophils, mean of three donors at concentration of highest activity, range 0.00125-1.25 μM

Row | Molecule | Repellent Index [1, 8] | Migratory Response [2] | Migratory Response [3] | Unimodal fugetaxin hit, Neutrophils [5] | also measured
1 | HSP40 Human: heat shock protein; accession BAA08495 | 1.4 | chemorepulsion | chemorepulsion | – | –
2 | CXCL1: chemokine | 2.6 | – | – | – | Repellent Index [4]: 1.3
3 | CC(C)Cn1cnc2c(N)nc3ccccc3c21 [Imiquimod, reference compound] | – | chemorepulsion | chemorepulsion | + | Unimodal fugetaxin hit, CD4+ [6]: +
4 | Galectin-1: carbohydrate binding protein (galectin), full-length, purchased; accession P09382 | 2.3 | chemorepulsion | chemorepulsion | – | Repellent Index ([1]; neutrophils, 0.00125 μM, one donor, triplicate, ± SD): 0.80 ± 0.08; Repellent Index ([1]; neutrophils, 0.0125 μM, one donor, triplicate, ± SD): 0.96 ± 0.22; Repellent Index ([1]; neutrophils, 0.125 μM, one donor, triplicate, ± SD): 1.05 ± 0.14; Repellent Index ([1]; neutrophils, 1.25 μM, one donor, triplicate, ± SD): 3.70 ± 0.29
5 | HSP27: heat shock protein; accession G01523/AAA62175 | 4.4 | chemorepulsion | chemorepulsion | + | –
6 | HSP90: heat shock protein; accession NP_005339.2 and others | 1.7 | chemorepulsion | – | + | Unimodal fugetaxin hit, CD4+ [6]: +
7 | IL8: interleukin-8 | – | – | – | – | chemotactic (chemoattractant) versus fugetactic (chemorepellent) response of neutrophils ([5]; neutrophils, 1 hour, FIGS. 3 and 4, at 10 uM where stated): over twice as chemotactic (chemoattractant) as fugetactic (chemorepellent)
8 | CCL11: chemokine | – | – | – | – | Repellent Index [4]: 2.1
9 | HSP60: heat shock protein | – | chemorepulsion | – | + | Unimodal fugetaxin hit, CD4+ [6]: +
10 | Poly(I:C) [reference compound] | – | chemorepulsion | chemorepulsion | – | Migratory Response [7]: chemorepulsion; Repellent Index ([1]; Neutrophils, mean of three donors at concentration of highest activity, range 0.01-10 μg/ml): 1.4
11 | B1 | – | chemorepulsion | chemorepulsion | – | Migratory Response [7]: chemorepulsion
12 | B2 | – | – | – | – | Repellent Index [4]: 1.4
